Test results reported in patent US10906887B2, “Amino compounds for treatment of immune and inflammatory disorders” (Achillion Pharmaceuticals, Inc., priority 2015, dated 2021).

Biological target: T1, Human Factor D (Homo sapiens, UniProt P00746)
T1 construct: purified from human serum
Assay: Human Factor D Assay
Assay type: biochemical
Details: Human Factor D 80 nM, substrate Z-L-Lys-SBzl, assay of Example 12
Method: Human Factor D (purified from human serum, Complement Technology, Inc.) at 80 nM final concentration was incubated with test compound at various concentrations for 5 minutes at room temperature in 50 mM Tris, 1M NaCl, pH 7.5. A synthetic substrate Z-L-Lys-SBzl and DTNB (Ellman's reagent) are added to final concentrations of 100 μM each. Absorbance at 405 nm (A405) was recorded at 30 second intervals for 30 minutes using a microplate spectrophotometer. IC50 values are calculated by nonlinear regression of complement Factor D reaction rates as a function of test compound concentration.
The assay of Example 12 was used to determine the IC50's of the compounds. Other standard Factor D inhibition assays are also available.

T1 sequence (P00746 26-253): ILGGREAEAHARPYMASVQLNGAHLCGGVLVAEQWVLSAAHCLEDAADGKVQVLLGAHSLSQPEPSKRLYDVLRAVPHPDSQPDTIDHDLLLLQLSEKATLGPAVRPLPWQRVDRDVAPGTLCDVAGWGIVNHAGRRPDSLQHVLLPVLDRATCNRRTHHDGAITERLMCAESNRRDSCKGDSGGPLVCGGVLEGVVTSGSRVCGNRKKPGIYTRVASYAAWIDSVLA

Structure (SMILES): Cc1cccc(NC(=O)[C@@H]2CC=CCN2C(=O)Cn2cc(C(N)=O)c3cc(Nc4cccnn4)ccc32)n1 [compound 1, (S)-1-(2-(6-((6-methylpyridin-2-yl)carbamoyl)-5,6-dihydropyridin-1(2H)-yl)-2-oxoethyl)-5-(pyridazin-3-ylamino)-1H-indole-3-carboxamide]
- IC50: > 10 µM
